Data taken from BindingDB's records for doi:10.1016/j.bmcl.2006.03.030 (Gsk, 2006).

Biological target: Transient receptor potential cation channel subfamily V member 1 (Homo sapiens, UniProt Q8NER1)
Experiment: FLIPR (Fluorescence Imaging Plate Reader)-Based Ca2+ Assay
Conditions: pH 7.2; 25 °C
Protocol: One day before the assay was performed, human TRPV1 expressed in 1321N1 astrocytoma cells were plated onto 96-well assay plates and grown until 2.5 h before the assay, and the cells were loaded with the Ca2+ reporter dye Fluo3-AM for 2 h at room temperature. After this, the cells were washed, and continuously being incubated for 30 min with medium containing test compounds at a range of different concentrations. The plates were then placed into a FLIPR to monitor fluorescence (excitation @ 488 nm and emission @540 nm) before and after the addition of capsaicin, antagonist potency was determined versus an EC80 concentration of capsaicin that was determined empirically on the day of the experiment.

Sequence of Transient receptor potential cation channel subfamily V member 1 (Q8NER1 whole entry): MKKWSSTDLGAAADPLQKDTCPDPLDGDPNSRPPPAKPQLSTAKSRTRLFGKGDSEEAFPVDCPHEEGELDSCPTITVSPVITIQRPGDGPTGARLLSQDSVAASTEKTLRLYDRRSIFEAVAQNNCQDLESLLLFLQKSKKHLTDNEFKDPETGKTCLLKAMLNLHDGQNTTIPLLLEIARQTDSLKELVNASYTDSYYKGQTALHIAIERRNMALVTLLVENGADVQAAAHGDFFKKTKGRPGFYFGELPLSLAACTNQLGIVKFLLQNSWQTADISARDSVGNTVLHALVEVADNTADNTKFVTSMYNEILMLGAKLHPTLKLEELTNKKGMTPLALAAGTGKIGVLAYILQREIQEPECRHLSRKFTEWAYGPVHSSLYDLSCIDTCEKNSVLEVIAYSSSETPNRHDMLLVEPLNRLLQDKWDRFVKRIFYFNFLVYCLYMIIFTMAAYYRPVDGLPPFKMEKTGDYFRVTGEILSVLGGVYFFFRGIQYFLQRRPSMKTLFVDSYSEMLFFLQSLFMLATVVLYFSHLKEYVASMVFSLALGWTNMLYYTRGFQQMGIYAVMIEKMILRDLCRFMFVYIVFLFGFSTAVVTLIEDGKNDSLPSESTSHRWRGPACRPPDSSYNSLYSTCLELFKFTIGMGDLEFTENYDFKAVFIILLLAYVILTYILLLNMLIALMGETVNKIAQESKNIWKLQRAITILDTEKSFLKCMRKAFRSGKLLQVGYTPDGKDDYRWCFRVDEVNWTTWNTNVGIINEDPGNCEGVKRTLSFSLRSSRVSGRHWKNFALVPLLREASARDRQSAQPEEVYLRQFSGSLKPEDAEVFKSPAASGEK

EC50 | SMILES
50 nM | O=C(Nc1ccccc1Br)N[C@@H]1CCN(c2ccc(Cl)cn2)C1 [1-(2-bromophenyl)-3-[(3R)-1-(5-chloropyridin-2-yl)pyrrolidin-3-yl]urea]
200 nM | N#Cc1ccc(N2CC[C@@H](NC(=O)Nc3ccccc3Br)C2)nc1 [1-(2-bromophenyl)-3-[(3R)-1-(5-cyanopyridin-2-yl)pyrrolidin-3-yl]urea]
> 200 nM | Cc1ccc(N2CC[C@@H](NC(=O)Nc3ccccc3Br)C2)nc1 [1-(2-bromophenyl)-3-[(3R)-1-(5-methylpyridin-2-yl)pyrrolidin-3-yl]urea]
> 251 nM | O=C(Nc1ccccc1Br)N[C@@H]1CCN(c2ccccn2)C1 [1-(2-bromophenyl)-3-[(3R)-1-(pyridin-2-yl)pyrrolidin-3-yl]urea]
79 nM | O=C(Nc1ccccc1Br)N[C@@H]1CCN(c2ncccc2C(F)(F)F)C1 [1-(2-bromophenyl)-3-[(3R)-1-[3-(trifluoromethyl)pyridin-2-yl]pyrrolidin-3-yl]urea]
126 nM | O=C(Nc1ccccc1Br)N[C@@H]1CCN(c2cc(C(F)(F)F)ccn2)C1 [1-(2-bromophenyl)-3-[(3R)-1-[4-(trifluoromethyl)pyridin-2-yl]pyrrolidin-3-yl]urea]
32 nM | O=C(Nc1ccccc1Br)N[C@@H]1CCN(c2ccc(C(F)(F)F)cn2)C1 [1-(2-bromophenyl)-3-[(3R)-1-[5-(trifluoromethyl)pyridin-2-yl]pyrrolidin-3-yl]urea]
63 nM | O=C(Nc1ccccc1Br)N[C@@H]1CCN(c2cccc(C(F)(F)F)n2)C1 [1-(2-bromophenyl)-3-[(3R)-1-[6-(trifluoromethyl)pyridin-2-yl]pyrrolidin-3-yl]urea]
> 158 nM | Cc1cccc(N2CC[C@H](NC(=O)Nc3ccccc3Br)C2)c1 [1-(2-bromophenyl)-3-[(3S)-1-(3-methylphenyl)pyrrolidin-3-yl]urea]
40 nM | Cc1ccc2c(c1)CCCN2CCNC(=O)Nc1ccccc1Br [3-(2-bromophenyl)-1-[2-(6-methyl-1,2,3,4-tetrahydroquinolin-1-yl)ethyl]urea]

The next lines start with the molecule.

SMILES | EC50
O=C(NCCN1CCc2ccccc21)Nc1ccccc1Br [1-(2-bromophenyl)-3-[2-(2,3-dihydro-1H-indol-1-yl)ethyl]urea] | 158 nM
O=C(NCCN1CCc2c(F)cccc21)Nc1ccccc1Br [1-(2-bromophenyl)-3-[2-(4-fluoro-2,3-dihydro-1H-indol-1-yl)ethyl]urea] | 40 nM
Cc1cccc2c1CCN2CCNC(=O)Nc1ccccc1Br [1-(2-bromophenyl)-3-[2-(4-methyl-2,3-dihydro-1H-indol-1-yl)ethyl]urea] | 40 nM
O=C(NCCN1CCc2cc(F)ccc21)Nc1ccccc1Br [1-(2-bromophenyl)-3-[2-(5-fluoro-2,3-dihydro-1H-indol-1-yl)ethyl]urea] | 79 nM
Cc1ccc2c(c1)CCN2CCNC(=O)Nc1ccccc1Br [1-(2-bromophenyl)-3-[2-(5-methyl-2,3-dihydro-1H-indol-1-yl)ethyl]urea] | 50 nM
O=C(Nc1ccccc1Br)N[C@@H]1CCN(c2ccc(F)c(F)c2)C1 [1-(2-bromophenyl)-3-[(3R)-1-(3,4-difluorophenyl)pyrrolidin-3-yl]urea] | 8 nM
Cc1ccc(N2CC[C@@H](NC(=O)Nc3ccccc3Br)C2)cc1F [1-(2-bromophenyl)-3-[(3R)-1-(3-fluoro-4-methylphenyl)pyrrolidin-3-yl]urea] | 5 nM
O=C(Nc1ccccc1Br)N[C@@H]1CCN(c2cccc(F)c2)C1 [1-(2-bromophenyl)-3-[(3R)-1-(3-fluorophenyl)pyrrolidin-3-yl]urea] | 16 nM
Cc1cccc(N2CC[C@@H](NC(=O)Nc3ccccc3Br)C2)c1 [1-(2-bromophenyl)-3-[(3R)-1-(3-methylphenyl)pyrrolidin-3-yl]urea] | 20 nM
O=C(Nc1ccccc1Br)N[C@@H]1CCN(c2ccc(Br)cn2)C1 [1-(2-bromophenyl)-3-[(3R)-1-(5-bromopyridin-2-yl)pyrrolidin-3-yl]urea] | 63 nM
